Source: patent US9895309B2, “Selenosugars for skin tissue repair” (SELENO THERAPEUTICS PTY LTD., priority 2014, dated 2018)

Legend:
db/db mice [1] = assay: Tissue histology of diabetic wounds; type: in vivo, mouse; conditions: diabetic wounds vs vehicle
Source text: FIGS. 3 to 12 illustrate comparative tissue histology for (a) the wildtype and (b) db/db mouse models, both (i) non-treated mice, (ii) mice treated for 5 days and (iii) mice treated for 10 days. The figures also illustrate plots against time in days for the following wound parameters for (i), (ii) and (iii) (where * indicates p<0.05, ** indicates p<0.01, *** indicates p<0.001);
(§1) In the experimental testing according to the present invention, pairs of circular incision wounds on the backs of wildtype C57/BL6 and db^−/db^− mice (n=12 each) were treated daily with a selenosugar according to the current invention or vehicle, topically for 10 days. Wound closure, vascular perfusion and tissue histology were assessed.

db/db mice [2] = assay: Wound closure, circular incision wounds, diabetic db/db mice, topical treatment; type: in vivo, mouse
Method: FIG. 1 illustrates wound closure observed in the db/db mouse models topically treated with a 1 mM saline solution of 1,4-anhydro-4-seleno-D-talitol (selenosugar) (b) and a non-selenium control sugar, 1,4-anydro-D-talitol (a).
as §1

db/db mice [3] = assay: Vascular perfusion of wounds by Doppler imaging, diabetic mice; type: in vivo; conditions: diabetic mouse wounds, p<0.05, FIG. 2
Source text: FIG. 2 illustrates vascular perfusion measured by Doppler imaging and corresponding to the selenosugar treated wound (1) and the untreated control wound (2) of the db^−/db^− mouse model of FIG. 1 (where * indicates p, 0.05, and n=6). Doppler imaging is a non-invasive technique used to evaluate blood flow velocity with red blood cells as the moving target;
as §1

wildtype mice = assay: Wound healing comparison of selenosugar with DHSred at the same dose, wildtype mice; type: in vivo, mouse; conditions: for Wound healing after topical application / Scar tissue formed during wound healing: same dose; for Wound healing after topical application / Pus formation in wound: FIG. 16; for Scar tissue formed during wound healing: FIG. 17; for Pus formation in wound: topical
Source text: FIG. 15 is a plot illustrating the performance of a selenosugar according to the present invention (1,4-anhydro-4-seleno-D-talitol) (8) against a similar water-soluble selenium compound that is not sugar derived (DHSred) (10) in non-diabetic (wt) mice over time. FIG. 15a illustrates % wound closure in terms of the wound size and FIG. 15b illustrates blood flow intensity (Doppler measurement) in arbitrary units where ** indicates p<0.01, *** p<0.001 and **** p<0.0001 and N=6;
FIG. 16 illustrates a wound treated with a selenosugar according to the present invention (ii) and a wound treated with DHSred (i) at the same dose.
FIG. 17 illustrates typical differences in scar tissue that forms during wound healing in wildtype mice having a wound treated with a selenosugar according to the present invention (ii) and a wound treated with DHSred (i) at the same dose.

[4] = tested on: indomethacin-induced stomach ulcers in mice; conditions: Chakraborty et al; cited from earlier work
wildtype C57/BL6 mice = assay: Wound closure, circular incision wounds, wildtype mice, topical treatment; type: in vivo, mouse
Method: as §1

[5] = wildtype mice, listed as DHSred

With “1,4-anhydro-4-seleno-D-talitol [Formula II]” the “IL-6 level (tissue histology)” value (db/db mice [1]; FIG. 4, p<0.05) was “decreased”, the “Elastin level (tissue histology)” value (db/db mice [1]; FIG. 6, p<0.01) was “increased” and the “MCP-1 level (tissue histology)” value (db/db mice [1]; FIG. 9, p<0.001) was “decreased”. For the same compound, the “MPO level (tissue histology)” value (db/db mice [1]; FIG. 10, p<0.001) was “decreased”, the “vWF level (tissue histology)” value (db/db mice [1]; FIG. 12, p<0.01) was “decreased” and the “Wound closure relative to control db/db mice” value (db/db mice [2]; day 4) was 3 fold. The Wound closure (db/db mice [2]; day 4, p<0.001 vs control db/db mice) was 32%, the “Wound closure relative to control db/db mice” value (db/db mice [2]; day 10) was 2 fold and the Wound closure (db/db mice [2]; day 10, p<0.0001 vs control db/db mice) was 83%. For the same compound, the “Vascular perfusion (Doppler imaging)” value (db/db mice [3]) was “improved vascular perfusion”.
In the case of `O[C@@H]1C[Se]C[C@H]1O` (racemic) [Formula III, DL-trans-3,4-dihydroxy-1-selenolane], the “Wound healing after topical application” value (wildtype mice; wildtype mice) is reported as “reduced wound healing”, the “Wound healing after topical application” value (wildtype mice; [5]) is reported as “inferior healing” and the “Scar tissue formed during wound healing” value (wildtype mice; wildtype mice) is reported as “pronounced scar tissue build up”. For the same compound, the “Pus formation in wound” value (wildtype mice; wildtype mice) was “observable pus formation”, the “Pus formation in wound” value (wildtype mice; [5]) was “development of pus” and the “Healing of indomethacin-induced stomach ulcers” value [4] was “accelerate healing”.
For `OC[C@@H](O)[C@@H]1[Se]C[C@@H](O)[C@H]1O` [Formula II, 1,4-anhydro-4-seleno-D-talitol], the “Inflammatory response during tissue repair” value (wildtype mice; FIG. 16 and histology) was “anti-inflammatory response”, the “Tissue repair during wound healing, formula II vs formula III” value (wildtype mice; wildtype mice, FIG. 15) was “superior” and the “Wound healing after topical application” value (wildtype mice; wildtype mice) was “improved wound closure and healing”. The “Scar tissue formed during wound healing” value (wildtype mice; wildtype mice) was “significantly less scar tissue”, the “Wound closure relative to controls” value (wildtype C57/BL6 mice; day 4) was 2 fold and the Wound closure (wildtype C57/BL6 mice; day 4, daily topical treatment, p<0.05 vs controls) was 32%. For the same compound, the Wound closure (wildtype C57/BL6 mice; day 10, daily topical treatment, p<0.01 vs controls) was 82%.
